Experimental data published in article PMC11301756, “The crystal structure of Shethna protein II (FeSII) from Azotobacter vinelandii suggests a domain swap” (Acta Crystallographica Section D: Structural Biology, 2024).

T1: FeSII (Shethna protein II) (Azotobacter vinelandii, UniProt Q44501)
T1 construct: synthetic gene in pRSET-A, no tag, expressed in E. coli KRX; about 13 kDa; dimer in solution; prepared aerobically (oxidized)
T1 sequence (Q44501 2-122 limits assumed): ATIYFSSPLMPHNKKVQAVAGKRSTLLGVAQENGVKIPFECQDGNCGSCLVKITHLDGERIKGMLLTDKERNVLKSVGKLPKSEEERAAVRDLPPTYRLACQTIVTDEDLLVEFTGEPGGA

B1: Shethna protein II (FeSII) from Azotobacter vinelandii (natural protein, UniProt Q44501 1-122, looked up)
chain: MATIYFSSPLMPHNKKVQAVAGKRSTLLGVAQENGVKIPFECQDGNCGSCLVKITHLDGERIKGMLLTDKERNVLKSVGKLPKSEEERAAVRDLPPTYRLACQTIVTDEDLLVEFTGEPGGA
notes: FeSII (Shethna protein II), adrenodoxin-type 2Fe-2S ferredoxin of Azotobacter vinelandii, locus AVIN_39700; synthetic gene in pRSET-A with no tag, amplified with primers from the start codon (ATGGCGACGATCTATTTCAGCAGC) to the stop codons; Carries a 2Fe-2S cluster; prepared aerobically (oxidized); Five copies in the asymmetric unit of the crystal; also called FeSII protein; source: E. coli …

Tests used:
[1] = biological target: T1, FeSII (Shethna protein II); test: X-ray crystal structure (Fe-SAD); assay type: binding; details: intrinsic cluster, protein prepared and crystallized aerobically (oxidized); pH 8.0; five copies in asymmetric unit, one closed and four open (domain-swapped)
[2] = biological target: the molecule itself; test: crystal structure; FeSII alone, hanging-drop vapour diffusion, 0.1 M HEPES pH 8.0, 0.2 M sodium citrate, 24% PEG 3350, 2% 1-butanol, 40 mg/ml FeSII; P2(1)2(1)2, 1.65 Å, Fe-SAD; dimers between chains and crystallographic symmetry mates

Molecule | X-ray crystal structure (Fe-SAD), 1.65 A [1] | binding result [2]
[S]1[Fe][S][Fe]1 [2Fe–2S cluster] | In chain E (salmon) in the crystal, the lid helix from chain E covers the iron–sulfur cluster | 
B1 |  | binds
